Data taken from patent US4173702A, “7-(5-Amino-5-carboxyvaler-amido)-3-(carbamoyloxymethyl)-7-methoxy-3-cep hem-4-carboxylic acid” (Eli Lilly and Company, priority 1970, dated 1979).
Where two headings read alike, the source gives them in different places.

Tests used:
Pseudomonas solanacearum = format: in vivo; settings: 0 no control, 4 complete control
solubility = format: physicochemical
[1] = tested on: Ascaris lumbricoides var. suum; test: medicated feed, mice infected with Ascaris ova, lung lesions; format: in vivo; settings: Example 13, mice, 0.05 percent in diet; control 2.66
Excerpt: The feeds were utilized as diets for separate groups of mice, five mice per group. Above twelve hours after initiation of the feeding, the mice were infected with Ascaris lumbricoides var. suum ova. Another group of five mice were fed the non-medicated feed to serve as a control but was similarly infected at the same time with Ascaris lumbricoides var. suum. All groups were fed their respective feed and maintained under normal laboratory conditions for a period of eight days, at which time all mice were taken off feed. On the ninth day, all mice were sacrificed and the lungs examined to determine the presence, and if present, numbers, of lesions of Ascaris lumbricoides var. suum.
Another evaluation was conducted under the procedures reported in Example 11, except that the rates were varied. The results were as follows:
In a further evaluation, the monoammonium salts of A16886I and A16886II were separately evaluated for the control of Ascaris lumbricoides var. suum. The evaluations were conducted in accordance with the procedure reported in Example 11 at a concentration in the diet of 0.05 percent.

tomato plants = test: field trial, crop injury; format: in vivo; settings: 0=no injury, 10=dead plants
Method: (§1) A mixture of the monoammonium salt of A16886I and the monoammonium salt of A16886II was tested under field conditions for the control of Xanthomonas vesicatoria (bacterial spot) on mature bearing tomato plants. The mixture of the two salts was dispersed in water at a concentration of 100, 200, or 400 parts per million and applied to the plants at the rate of 75 gallons per acre. Application was made with a CO2 sprayer at 50 psi. Plants were sprayed twice, on successive days; after the second spray had dried, all plants were wounded by sand blasting and then within one minute the plants were inoculated with a bacterial inoculum of Xanthomonas vesicatoria. Three days later, a third spray application of the aqueous formulation of A16886 was made. Readings were made one week and two weeks after the last spray treatment. Controls consisted of groups of plants (1) sand blasted and inoculated; (2) sand blasted only; (3) untreated; and (4) treated with streptomycin (on the same three-day spraying schedule, at a concentration of 100, 200, or 400 parts per million of aqueous solution, using a rate of 75 gallons per acre), sand blasted, and inoculated. The results were as set forth in the following table, in which crop injury is reported on a scale of 0-10, with 0=no injury and 10=dead plants; and control of bacterial spot is reported on a percentage basis.

Xanthomonas vesicatoria = test: field trial, bacterial spot control on tomato plants; format: in vivo
Method: as §1

[2] = in acetonitrile and other organic solvents

## NC(=O)OCC1=C(C(=O)O)N2C(=O)C(NC(=O)CCCC(N)C(=O)O)[C@H]2SC1 (stereo partly drawn) [A16886II, 7-(5-amino-5-carboxyvaleramido)-3-(carbamoyloxymethyl)-3-cephem-4-carboxylic acid]
Pseudomonas solanacearum; Example 7, 10 ppm.
  Disease Rating: 1
Pseudomonas solanacearum; Example 7, 100 ppm.
  Disease Rating: 4
solubility; [2]
  solubility: essentially insoluble
solubility; in lower alkanols
  solubility: slightly soluble
solubility; in water
  solubility: very soluble
[1]
  Average Number of Lung Lesions Per Group: 0.20

## COC1(NC(=O)CCCC(N)C(=O)O)C(=O)N2C(C(=O)O)=C(COC(N)=O)CS[C@@H]21 (stereo partly drawn) [A16886I, 7-(5-amino-5-carboxyvaleramido)-3-(carbamoyloxymethyl)-7-methoxy-3-cephem-4-carboxylic acid]
Pseudomonas solanacearum; Example 7, 10 ppm.
  Disease Rating: 2
Pseudomonas solanacearum; Example 7, 100 ppm.
  Disease Rating: 4
Pseudomonas solanacearum; Example 8, 100 ppm.
  rating: 4
Pseudomonas solanacearum; Example 8, 200 ppm.
  rating: 4
Pseudomonas solanacearum; Example 8, 400 ppm.
  rating: 4
solubility; [2]
  solubility: essentially insoluble
solubility; in lower alkanols
  solubility: slightly soluble
solubility; in water
  solubility: very soluble
[1]
  Average Number of Lung Lesions Per Group: 0.46

## [H]/N=C(/N)N[C@H]1[C@H](O)[C@@H](O)[C@H](O[C@@H]2O[C@@H](C)[C@](O)(C=O)[C@H]2O[C@@H]2O[C@@H](CO)[C@H](O)[C@@H](O)[C@@H]2NC)[C@@H](N/C(N)=N\[H])[C@@H]1O [Streptomycin]
Tomato plants; 100 ppm, First Reading
  Crop Injury Ratings: 0
Tomato plants; 100 ppm, Second Reading
  Crop Injury Ratings: 0
Tomato plants; 200 ppm, First Reading
  Crop Injury Ratings: 0
Tomato plants; 200 ppm, Second Reading
  Crop Injury Ratings: 0
Tomato plants; 400 ppm, First Reading
  Crop Injury Ratings: 0
Tomato plants; 400 ppm, Second Reading
  Crop Injury Ratings: 0
Xanthomonas vesicatoria; 100 ppm, First Reading
  Percent Bacterial Spot Control: 83%
Xanthomonas vesicatoria; 100 ppm, Second Reading
  Percent Bacterial Spot Control: 57%
Xanthomonas vesicatoria; 200 ppm, First Reading
  Percent Bacterial Spot Control: 81%
Xanthomonas vesicatoria; 200 ppm, Second Reading
  Percent Bacterial Spot Control: 37%
Xanthomonas vesicatoria; 400 ppm, First Reading
  Percent Bacterial Spot Control: 83%
Xanthomonas vesicatoria; 400 ppm, Second Reading
  Percent Bacterial Spot Control: 59%
